These are literature values, as cited in publication PMC4984525 (Cancer, 2011).

The data set relates to K562. The conditions noted are these: K562 subcutaneous xenograft, mouse; cited from earlier work.

Consider `CON(C)C(=O)N1N=C(c2cc(F)ccc2F)S[C@@]1(CCCN)c1ccccc1` [ARRY-520], for which the anti-cancer efficacy entry was “demonstrated anti-cancer efficacy”.
